In patent US10501426B1, “Synthesis of thiazole derivative as anticancer and anti-antibiotics resistant bacteria agent” (priority 2019, dated 2019):

Legend:
Assay in all cases: Antibiotic susceptibility testing, Vitek System
Format in all cases: cell-based, Staphylococcus epidermidis
S. epidermidis S2 = test system: S. epidermidis S2
Description: (§1) Compound 6, synthesized as above, was evaluated as an antimicrobial agent against selected antibiotics resistant Staphylococcus epidermidis. The bacterial strains were obtained from Laboratory (2b56) of the Botany and Microbiology Department, College of Science, King Saud University, Riyadh. The bacterial strains were isolated from the skin of healthy students and identified by an automated antibiotic susceptibility testing system, Vitek System (BioMerieux, France).

S. epidermidis S1 = test system: S. epidermidis S1
Description: as §1

S. epidermidis S3 = test system: S. epidermidis S3
Description: as §1
Further: key: S = susceptible; R = Resistant; I = intermediate.

Molecule | susceptibility to standard antibiotics (S. epidermidis S2) | susceptibility to standard antibiotics (S. epidermidis S1) | susceptibility to standard antibiotics (S. epidermidis S3)
CC(=O)O[C@H]1C[C@@]2(C)[C@@H](C[C@@H](O)[C@H]3[C@@]4(C)CC[C@@H](O)[C@@H](C)[C@@H]4CC[C@@]32C)/C1=C(\CCC=C(C)C)C(=O)O [Fusidic Acid] | R | S | R
Cc1onc(-c2ccccc2)c1C(=O)N[C@@H]1C(=O)N2[C@@H]1SC(C)(C)[C@@H]2C(=O)O [Oxacillin] | R | S | R
CC(=O)NC[C@H]1CN(c2ccc(N3CCOCC3)c(F)c2)C(=O)O1 [Linezolid] | R | S | R
C[C@@H]1O[C@@H]1P(=O)(O)O [Fosfomycin] | S | S | S
CN(C)[C@@H]1C(O)=C(C(N)=O)C(=O)[C@@]2(O)C(O)=C3C(=O)c4c(O)cccc4[C@@](C)(O)[C@H]3C[C@@H]12 [Tetracycline] | S | S | S
Gentamicin | S | S | S
C[C@@H](O)[C@H]1C(=O)N2C(C(=O)O)=C(SCCN=CN)C[C@H]12 [Lmipenem] | S | S | S
CCC[C@@H]1C[C@@H](C(=O)N[C@@H]([C@H]2O[C@H](SC)[C@H](O)[C@@H](O)[C@H]2O)[C@H](C)Cl)N(C)C1 [Clindamycin] | R | S | R
C[C@H]1COc2c(N3CCN(C)CC3)c(F)cc3c(=O)c(C(=O)O)cn1c23 [Levofloxacin] | R | S | S
CN[C@H](CC(C)C)C(=O)N[C@H]1C(=O)N[C@@H](CC(N)=O)C(=O)N[C@H]2C(=O)N[C@H]3C(=O)N[C@H](C(=O)N[C@H](C(=O)O)c4cc(O)cc(O)c4-c4cc3ccc4O)[C@H](O)c3ccc(c(Cl)c3)Oc3cc2cc(c3O[C@@H]2O[C@H](CO)[C@@H](O)[C@H](O)[C@H]2O[C@H]2C[C@](C)(N)[C@H](O)[C@H](C)O2)Oc2ccc(cc2Cl)[C@H]1O [Vancomycin] | R | S | S
CCCCCCCCCC(=O)N[C@@H](Cc1c[nH]c2ccccc12)C(=O)N[C@H](CC(N)=O)C(=O)N[C@@H](CC(=O)O)C(=O)N[C@@H]1C(=O)NCC(=O)N[C@@H](CCCN)C(=O)N[C@@H](CC(=O)O)C(=O)N[C@H](C)C(=O)N[C@@H](CC(=O)O)C(=O)NCC(=O)N[C@H](CO)C(=O)N[C@@H]([C@H](C)CC(=O)O)C(=O)N[C@@H](CC(=O)c2ccccc2N)C(=O)O[C@@H]1C [Daptomycin] | R | S | R
CO[C@H]1/C=C/O[C@@]2(C)Oc3c(C)c(O)c4c(O)c(c(/C=N/N5CCN(C)CC5)c(O)c4c3C2=O)NC(=O)/C(C)=C\C=C\[C@H](C)[C@H](O)[C@@H](C)[C@@H](O)[C@@H](C)[C@H](OC(C)=O)[C@@H]1C [Rifampin] | R | S | R
Teicoplanin | R | S | S
O=C(O)c1cn(C2CC2)c2cc(N3CCNCC3)c(F)cc2c1=O [Ciprofloxacin] | R | S | R
COc1c(N2C[C@@H]3CCCN[C@@H]3C2)c(F)cc2c(=O)c(C(=O)O)cn(C3CC3)c12 [Moxifloxacin] | R | S | S
CC[C@H]1OC(=O)[C@H](C)[C@@H](O[C@H]2C[C@@](C)(OC)[C@@H](O)[C@H](C)O2)[C@H](C)[C@@H](O[C@@H]2O[C@H](C)C[C@H](N(C)C)[C@H]2O)[C@](C)(O)C[C@@H](C)C(=O)[C@H](C)[C@@H](O)[C@]1(C)O [Erythromycin] | R | R | R
C/C(=C\C(=O)OCCCCCCCCC(=O)O)C[C@@H]1OC[C@H](C[C@@H]2O[C@H]2[C@@H](C)[C@H](C)O)[C@@H](O)[C@H]1O [Mupirocin] | R | S | R
